Key:
[1] = Adjuvant arthritis test in the rat (Test A); assay type: in vivo; conditions: for ED50: Rattus norvegicus
Description: For this test adjuvant arthritis is induced according to the method of Pearson and Wood, "Arthr. Rheum."2, 440 (1959). Compounds of the invention, e.g. compounds of formula I, are active in this test against developing and established arthritis at dosages of from 5 to 30 mg/kg/day.

[2] = Yeast-induced fever test in the rat (Test B); assay type: in vivo, male rats (Sprague-Dawley); conditions: for ED50: Rattus norvegicus, read-out: Yeast fever ED50
Description: For this test male rats (Sprague-Dawley) of 130-180 g are fasted overnight. Body temperature is measured the following morning using a thermistor rectal probe connected to a telethermometer. 1 ml/100 g body weight of a 15% suspension of dried baker's yeast in saline is then injected s.c.. Body temperature is measured 2 hours later and this value taken as the initial temperature. 6 hours after yeast injection the test animals receive an oral dosage of the test substance suspended in 0.5% tragacanth or tragacanth alone (control). Body temperature is again measured after a further 2 hours.
Increase in temperature for each rat is calculated and expressed as a % of average increase determined in the control group (ca. 2.3° C. above normal). The ED50, estimated by regression analysis, is taken as the dosage at which increase in rectal temperature is 50% of that in the control group. Compounds of the invention, e.g. compounds of formula I, are active in this test at dosages of from 15 to 60 mg/kg.

[3] = Arthritis pain test in the rat (Test C); assay type: in vivo, male rats (OFA); conditions: for ED50: Rattus norvegicus, read-out: Arthritis pain ED50
Description: For this test male rats (OFA) of 110-120 g are treated with 0.1 ml of a Mycobacterium butyricum suspension in paraffin oil (0.6 mg Mycobact./0.1 ml oil) injected i.c. into the tail root. Marked arthritis in the hind-paws develops ca. 12 days after treatment. 30 mins. before administration of test-substance, control measurement is performed by flexing the foot joint of the right or left hind-paw using a Statham transducer until vocalisation occurs. […] Test substance is administered orally and the flexion procedure repeated 1,3 and 5 hours subsequently. The pressure at which vocalisation occurs is noted, the value recorded for each rat at each interval being the average value of three successive measurements. Animals in which the vocalisation threshold is doubled with respect to the control measurement are considered to be protected. The ED50 estimated for each post-treatment time according to the Probit method is taken as the dosage at which 50% of animals are protected. Compounds of the invention, e.g. compounds of formula I, are active in this test at dosages of from 3.2 to 100 mg/kg.

Question: With COC1=Cc2ccccc2C(=CC(=O)O)c2ccsc21 [A, [10-methoxy-4H-benzo[4,5]cyclohepta[1,2-b]thiophen-4-ylidene]-acetic acid] as the compound, how does the ED50 ([1]; Test A, developing arthritis, compound A as cis/trans (Z,E) isomer mixture, read-out: Developing arthritis ED50) read?
Answer: Its ED50 is 15 mg/kg.

Question: And the ED50 ([1]; Test A, developing arthritis, using cis (Z) isomer, read-out: Developing arthritis ED50)?
Answer: The ED50 was 8 mg/kg.

Question: And the ED50 ([1]; Test A, established arthritis, compound A as cis/trans (Z,E) isomer mixture, read-out: Established arthritis ED50)?
Answer: Its ED50 is 15 mg/kg.

Question: What about the ED50 ([1]; Test A, established arthritis, using cis (Z) isomer, read-out: Established arthritis ED50) of the same compound?
Answer: Its ED50 is 16 mg/kg.

Question: What about the “indicated daily dosage relative to acetylsalicylic acid, anti-inflammatory therapy” value ([1]; pure cis-isomer) of the same compound?
Answer: Its value is 1/15.

Question: What about the ED50 ([2]; Test B, oral, temperature 2 h after dosing, compound A as cis (Z) isomer) of the same compound?
Answer: Its ED50 is 22 mg/kg.

Question: What about the “indicated daily dosage relative to acetylsalicylic acid, anti-pyretic therapy” value ([2]; cis-isomer) of the same compound?
Answer: The value was 1/7.

Question: What about the ED50 ([3]; Test C, oral, 50% of animals protected, compound A as cis (Z) isomer) of the same compound?
Answer: Its ED50 is 7 mg/kg.

Question: And the “indicated daily dosage relative to acetylsalicylic acid, analgesic therapy” value ([3]; cis-isomer)?
Answer: Its value is 1/12.

Question: For CC(=O)Oc1ccccc1C(=O)O [B, acetylsalicyclic acid, reference compound], which ED50 ([1]; read-out: Developing arthritis ED50) is on record?
Answer: Its ED50 is 140 mg/kg.

Question: And the ED50 ([1]; read-out: Established arthritis ED50)?
Answer: Its ED50 is 240 mg/kg.

Question: What about the ED50 ([2]; po, 2 h) of the same compound?
Answer: The ED50 was 161 mg/kg.

Question: And the ED50 ([3]; po)?
Answer: The ED50 was 90 mg/kg.
